Results reported in US20220064170A1, “BICYCLIC HETEROCYCLIC DERIVATIVES AND THEIR USE AS PHARMACEUTICALS” (Prelude Therapeutics, Incorporated, priority 2018, published 2022).

Target: T1, MCL-1 (Homo sapiens, UniProt Q07820)
T1 construct: purchased BPS Bioscience
Experiment: Cell Free Mcl-1:Bim affinity assay (Mcl-1 Bim), fluorescence polarization competition
Type: binding
Conditions: 15 nM MCL-1, 5 nM FITC-Bim peptide tracer, 1 hour at room temperature; Ki calculated from IC50 by Nikolovska-Coleska's equation; read-out: BIM_Ki
Procedure: The binding affinity of each compounds was measured via fluorescence polarization competition assay, in which the compound competes the same binding site with the ligand, and thus lead to dose-dependent anisotropy reduction. The tracer ligand utilized was a fluorescein isothiocyanate labelled peptide (FITC-[…]) derived from Bim (GenScript).
The assay was carried out in black half-area 96-well NBS plate (Corning), containing 15 nM of MCL-1 (BPS Bioscience), 5 nM of FITC-Bim and 3-fold series diluted test compounds in a total volume of 50 uL of assay buffer (20 mM HEPES, 50 mM NaCl, 0.002% Tween 20 1 mM TCEP and 1% DMSO). The reaction plate was incubated for 1 hour at room temperature. The change of anisotropy is measured by Envision multimode plate reader (PerkinElmer) at emission wavelength 535 nm. Fluorescence polarization was calculated in mP unit and the percentage inhibition was calc. by % inhibition=100×(mPDMSO−mP)/(mPDMSO−mPPC), in which mPDMSO is the DMSO control, and mPPC is the positive control. IC50 values were determined from a 10-point dose response curve by fitting the percent inhibition against compound concentration using the GraphPad Prism software. The inhibition constant Ki was subsequently calculated according Nikolovska-Coleska's equation (Anal. Biochem., 2004, 332, 261),
Where [I]50 is the concentration of the free inhibitor at 50% inhibition, [L]50 is the concentration of the free labeled ligand at 50% inhibition, [P]0 is the concentration of the free protein at 0% inhibition, and Kd is the dissociation constant of the protein-ligand complex.

T1 sequence (Q07820 whole entry): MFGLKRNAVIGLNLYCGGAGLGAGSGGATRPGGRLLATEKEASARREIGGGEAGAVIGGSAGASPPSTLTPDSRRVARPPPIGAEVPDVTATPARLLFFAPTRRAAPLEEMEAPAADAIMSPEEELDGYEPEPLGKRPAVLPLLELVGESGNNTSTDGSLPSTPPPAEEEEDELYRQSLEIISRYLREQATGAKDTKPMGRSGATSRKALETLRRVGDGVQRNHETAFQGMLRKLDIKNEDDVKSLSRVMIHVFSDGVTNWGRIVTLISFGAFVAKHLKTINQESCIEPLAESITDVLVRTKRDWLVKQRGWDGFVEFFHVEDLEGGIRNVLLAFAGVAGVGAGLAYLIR

Ki | Compound
> 12000 nM | Cc1c(-c2c(-c3ccc(F)cc3)cn3ncnc(O[C@@H](Cc4ccccc4OCC4CC4)C(=O)O)c23)ccc(OCCN2CCN(C)CC2)c1Cl (atropisomer, axis not shown) [Example 2, (2S)-2-[(5R^a)-5-[3-Chloro-2-methyl-4-[2-(4-methylpiperazin-1-yl)ethoxyl]phenyl]-6-(4-fluoro-phenyl)pyrrolo[2,1-f][1,2,4]triazin-4-yl]oxy-3-[2-(cyclopropylmethoxy)phenyl]propanoic acid]
0.7 nM | COc1ccccc1-c1nccc(COc2ccccc2C[C@@H](Nc2ncnn3cc(-c4ccc(F)cc4)c(-c4ccc(OCCN5CCN(C)CC5)c(Cl)c4C)c23)C(=O)O)n1 (atropisomer, axis not shown; (Ra)) [Example 13, (2R)-2-{[(5Ra)-5-{3-Chloro-2-methyl-4-[2-(4-methylpiperazin-1-yl)ethoxy]phenyl}-6-(4-fluorophenyl)pyrrolo[2,1-f][1,2,4]triazin-4-yl]amino}-3-(2-{[2-(2-methoxyphenyl)pyrimidin-4-yl]methoxy}phenyl)propanoic acid]
> 12000 nM | Cc1c(-c2c(-c3ccc(F)cc3)cn3ncnc(O[C@@H](Cc4ccccc4OCC4CC4)C(=O)O)c23)ccc(OCCN2CCN(C)CC2)c1Cl (atropisomer, axis not shown; (Sa)) [Example 3, (2S)-2-[(5Sa)-5-[3-Chloro-2-methyl-4-[2-(4-methylpiperazin-1-yl)ethoxy]phenyl]-6-(4-fluoro-phenyl)pyrrolo[2,1-f][1,2,4]triazin-4-yl]oxy-3-[2-(cyclopropylmethoxy)phenyl]propanoic acid]
382 nM | COc1ccccc1-c1nccc(COc2ccccc2C[C@H](Nc2ncnn3cc(-c4ccc(F)cc4)c(-c4ccc(OCCN5CCN(C)CC5)c(Cl)c4C)c23)C(=O)O)n1 (racemic) [Example 11]
205 nM | Cc1c(-c2c(-c3ccc(F)cc3)cn3ncnc(O[C@H](Cc4ccccc4OCC4CC4)C(=O)O)c23)ccc(OCCN2CCN(C)CC2)c1Cl (atropisomer, axis not shown; (Sa)) [Example 1, (2R)-2-[(5Sa)-5-[3-Chloro-2-methyl-4-[2-(4-methylpiperazin-1-yl)ethoxy]phenyl]-6-(4-fluoro-phenyl)pyrrolo[2,1-f][1,2,4]triazin-4-yl]oxy-3-[2-(cyclopropylmethoxy)phenyl]propanoic acid]
> 12000 nM | Cc1c(-c2c(-c3ccc(F)cc3)cn3ncnc(N[C@H](Cc4ccccc4OCC4CC4)C(=O)O)c23)ccc(OCCN2CCN(C)CC2)c1Cl (single isomer, unassigned) [Example 5]
77.7 nM | Cc1c(-c2c(-c3ccc(F)cc3)cn3ncnc(N[C@H](Cc4ccccc4OCC4CC4)C(=O)O)c23)ccc(OCCN2CCN(C)CC2)c1Cl (single isomer, unassigned) [Example 7]
> 12000 nM | Cc1c(-c2c(-c3ccc(F)cc3)cn3ncnc(N[C@@H](Cc4ccccc4OCC4CC4)C(=O)O)c23)ccc(OCCN2CCN(C)CC2)c1Cl (atropisomer, axis not shown; (Sa)) [Example 8, (2S)-2-{[(5Sa)-5-[3-Chloro-2-methyl-4-[2-(4-methylpiperazin-1-yl)ethoxy]phenyl]-6-(4-fluorophenyl)pyrrolo[2,1-f][1,2,4]triazin-4-yl]amino}-3-[2-(cyclopropylmethoxy)phenyl]-propanoic acid]
11.3 nM | Cc1c(-c2c(-c3ccc(F)cc3)cn3ncnc(O[C@H](Cc4ccccc4OCC4CC4)C(=O)O)c23)ccc(OCCN2CCN(C)CC2)c1Cl (atropisomer, axis not shown; (Ra)) [Example 4, (2R)-2-[(5Ra)-5-[3-Chloro-2-methyl-4-[2-(4-methylpiperazin-1-yl)ethoxy]phenyl]-6-(4-fluoro-phenyl)pyrrolo[2,1-f][1,2,4]triazin-4-yl]oxy-3-[2-(cyclopropylmethoxy)phenyl]propanoic acid]
990 nM | COc1ccccc1-c1nccc(COc2ccccc2C[C@H](Nc2ncnn3cc(-c4ccc(F)cc4)c(-c4ccc(OCCN5CCN(C)CC5)c(Cl)c4C)c23)C(=O)O)n1 (single isomer, unassigned) [Example 12]

Compound | Ki
(2S)-2-{[(5Ra)-5-[3-Chloro-2-methyl-4-[2-(4-methylpiperazin-1-yl)ethoxy]phenyl]-6-(4-fluorophenyl)pyrrolo[2,1-f][1,2,4]triazin-4-yl]amino}-3-[2-(cyclopropylmethoxy)phenyl]propanoic acid [Example 6] | > 12000 nM
